Test results: US10654896B2, “FoxP3-binding peptides and uses thereof” (FUNDACIÓN PARA LA INVESTIGACIÓN MÉDICA APLICADA, priority 2016, dated 2020)
Where no end group is shown, it is not given here.

Tests used:
[1] = system: CT26 tumor cells; assay: Anti-tumor vaccination experiment (AH1 in IFA), CT26 challenge; type: in vivo, BALB/c
Procedure: For anti-tumor vaccination experiments, BALB/c animals immunized with 50 nanomol/mice of peptide AH1 emulsified in incomplete Freund adjuvant (IFA) (Casares et al., 2010, supra), were treated intraperitoneally with 10 nanomol/mice of the indicated Treg inhibitory peptide SEQ ID NO: 51 of the invention or with saline daily during 10 days. At day 10, mice were injected s.c. with 10^6 CT26 tumor cells. Tumor size was monitored twice a week with a calliper and it was expressed according to the formula V=(length×width2)/2. Mice were sacrificed when tumor size reached a volume greater than 4 cm^3.

[2] = Human liver microsomal stability; type: in vitro ADME; details: human liver microsomes
Procedure: (§1) The data collected were analyzed to calculate a half-life (t1/2, min) for tested peptides at a final concentration of 1 μM. Briefly, 5 μL of stock solution of tested peptide (10 mM) were diluted in 495 μL of 1:1 Methanol/Water (final concentration of 100 μM, 50% MeOH). Then, 50 μL of this intermediate solution were diluted in 450 μL of 100 mM potassium phosphate buffer to a concentration of 10 μM (working solution, 5% MeOH). The NADPH regenerating system contains β-Nicotinamide adenine dinucleotide phosphate (Sigma, Cat. # N0505), Isocitric acid (Sigma, Cat. #11252) and Isocitric dehydrogenase (Sigma, Cat. #12002) at a final concentration of 1 unit/mL at incubation.
(§2) Human liver microsomes were obtained from BD Gentest (Cat. #452117) and mouse liver microsomes from Xenotech (Cat. # M1000), to a final concentration of 0.7 mg protein/mL. A volume of 10 μL of peptide solution and 80 μL of microsome solution were added to a 96-well plate and incubated for 10 min at 37° C. The reaction was started by the addition of 10 μL of NADPH regenerating system and stopped by the addition of 300 μL of stop solution (ACN at 4° C., including 100 ng/mL Tolbutamide and 100 ng/mL of Labetalol as internal standard) at different incubation times (0, 5, 10, 20, 30 and 60 min). Concentrations of test compound were quantified by LC-MS/MS methodologies (Shimadzu LC 20-AD/API4000) using peak area ratio of analyte/internal standard and the percent loss of parent compound was calculated under each time point to determine the half-life.

[3] = Mouse liver microsomal stability; type: in vitro ADME; details: mouse liver microsomes
Procedure: as §1, §2

[4] = molecular target: T1, human FOXP3 (FOXP3-6His) (Homo sapiens, UniProt Q9BZS1); assay: Peptide binding to FOXP3 by surface plasmon resonance (SPR)
T1 construct: 6xHis (C); made in house; host or cells: E. coli BL21 (DE3)
T1 sequence (Q9BZS1 1-431): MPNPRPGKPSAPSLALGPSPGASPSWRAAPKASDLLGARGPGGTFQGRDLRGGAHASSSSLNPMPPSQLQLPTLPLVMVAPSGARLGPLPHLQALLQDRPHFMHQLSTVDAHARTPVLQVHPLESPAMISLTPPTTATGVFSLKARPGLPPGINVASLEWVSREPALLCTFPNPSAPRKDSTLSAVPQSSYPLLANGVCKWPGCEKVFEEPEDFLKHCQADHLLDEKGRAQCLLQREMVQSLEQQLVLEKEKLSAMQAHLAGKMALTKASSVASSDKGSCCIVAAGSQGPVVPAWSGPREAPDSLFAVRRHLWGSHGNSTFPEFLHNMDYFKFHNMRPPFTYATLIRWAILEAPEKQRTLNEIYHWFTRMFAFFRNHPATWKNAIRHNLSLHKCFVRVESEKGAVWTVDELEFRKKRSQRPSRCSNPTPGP
How it was run: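 C-terminally 6His-tagged human FOXP3, expressed in E. coli BL21(DE3) and Ni-affinity purified, was amine-coupled to a GLM chip (ProteOn XPR36). Peptides at 1–20 μM injected in triplicate in PBS, 0.005% Tween 20, pH 7.4, at 30 μl/min, with interspot reference. Binding given as ratio to reference peptide p60.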

[5] = system: Hepa-129 cells; assay: Tumor rejection experiment, Hepa-129 cells s.c.; type: in vivo, C3H/HeN mice; details: peptide 50 μg/mice/day, days 10 to 20, combined with anti-PD1 antibodies
Procedure: For tumor rejection experiments, Hepa-129 cells (10^6 cells/mouse), were injected subcutaneously (sc) in C3H/HeN mice (n=6). Ten days later, when the tumor reached 5 mm in diameter, mice were randomly divided into different experimental groups. A group of mice were treated i.p. with anti-PD1 antibodies (BE0146, BioXcell) (50 μg/mouse). Antibody administration was repeated one week after this first administration. A group of mice treated with anti-PD1 also received the cyclic peptide SEQ ID NO: 50 from days 10 to 20 (50 μg/mice/day). Tumor size, presented as the average of two perpendicular diameters (millimeters), was measured at regular intervals. Mice were sacrificed when the mean tumor diameter was greater than 20 mm. Mice were housed in appropriated animal care facilities during the experimental period and handled following the international guidelines required for experimentation with animals. The experiments were approved by institutional ethical committee.

[6] = 20 min, read-out: % Remaining after 20 min
[7] = 60 min, read-out: % Remaining after 60 min

Sequence | effect on growth of CT26 colon cancer tumor ([1]; 10 nanomol/mice i.p. daily during 10 days after AH1/IFA, day 30 after injection of CT26) | tumor volume ([1]; day 30 after injection of CT26 tumor cells) | remaining at 20 min, 1 μM [2, 6] [%] | remaining at 1 h, 1 μM [2, 7] [%] | half-life ([2]; peptide 1 μM, read-out: t1/2) [min] | remaining at 20 min, 1 μM [3, 6] [%] | remaining at 1 h, 1 μM [3, 7] [%] | half-life ([3]; peptide 1 μM) [min] | increase in the binding to FoxP3 with respect to p60 (SEQ ID NO: 1) [4] | antitumor activity [5]
RDFQSFRKMWPFFAM [SEQ ID NO: 1, RDFQSFRKMWPFFAM, reference compound] | not efficient | about 2000 mm^3 | 0 | 0 | < 2.5 | 0 | 0 | < 2.5 |  | 
RAFQAFRKMWPFFAM [SEQ ID NO: 50] (cyclo(RAFQAFRKMWPFFAM); also: R1 and R2 form a linker birradical which is -C(=O)-) [head-to-tail cyclic peptide] |  |  |  |  |  |  |  |  | more than 2100% | remarkable antitumor activity
